Here are results for 27 compounds from patent publication US9149476B2, “Thiochromene derivatives as HIF hydroxylase inhibitors” (FibroGen, Inc., priority 2008, dated 2015).

The first assay deals with T1, HIF-PH2 (EGLN1) (Homo sapiens, UniProt Q9GZT9).
T1 construct: made in house; host or cells: insect Hi5 cells
T1 sequence (Q9GZT9 whole entry): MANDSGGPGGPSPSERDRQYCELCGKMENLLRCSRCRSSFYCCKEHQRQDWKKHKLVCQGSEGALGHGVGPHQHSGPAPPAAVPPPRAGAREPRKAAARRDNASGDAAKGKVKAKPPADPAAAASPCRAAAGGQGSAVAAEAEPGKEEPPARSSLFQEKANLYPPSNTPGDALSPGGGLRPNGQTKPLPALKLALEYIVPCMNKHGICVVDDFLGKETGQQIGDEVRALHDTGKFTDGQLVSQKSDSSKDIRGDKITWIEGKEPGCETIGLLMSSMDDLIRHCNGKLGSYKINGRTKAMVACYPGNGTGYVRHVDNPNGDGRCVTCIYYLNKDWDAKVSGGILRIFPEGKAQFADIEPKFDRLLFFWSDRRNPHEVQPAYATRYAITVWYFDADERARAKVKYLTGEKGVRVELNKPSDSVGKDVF
Briefly: HIF-PH assay (14CO2 capture, peptide-dependent turnover). Format: biochemical. The settings on record: compound concentration 7.4 μM. An excerpt: Ketoglutaric acid α-[1-^14C]-sodium salt, alpha-ketoglutaric acid sodium salt, and HPLC purified peptide may be obtained from commercial sources, e.g., Perkin-Elmer (Wellesley Mass.), Sigma-Aldrich, and SynPep Corp. (Dublin Calif.), respectively. Peptides for use in the assay may be fragments of HIFα as described above or as disclosed in International Publication WO 2005/118836, incorporated by reference herein. For example, a HIF peptide for use in the HIF-PH assay is [methoxycoumarin]-DLDLEALAPYIPADDDFQL-amide (SEQ ID NO:2). HIF-PH, e.g., HIF-PH2 (EGLN1), can be expressed in, e.g., insect Hi5 cells, and partially purified, e.g., through a SP ion exchange chromatography column. Enzyme activity is determined by capturing ^14CO2 using an assay described by Kivirikko and Myllyla (1982, Methods Enzymol. 82:245-304). Assay reactions contain 50 mM HEPES (pH 7.4), 100 μM α-ketoglutaric acid sodium salt, 0.30 μCi/mL ketoglutaric acid α-[1-^14C]-sodium salt, 40 μM FeSO4, 1 mM ascorbate, 1541.8 units/mL Catalase, with or without 50 μM peptide substrate and various concentrations of compound of the invention. Reactions are initiated by addition of HIF-PH enzyme.
The peptide-dependent percent turnover is calculated by subtracting percent turnover in the absence of peptide from percent turnover in the presence of substrate peptide. Percent inhibition and IC50 are calculated using peptide-dependent percent turnover at given inhibitor concentrations. Calculation of IC50 values for each inhibitor is conducted using GraFit software (Erithacus Software Ltd., Surrey UK).
Representative compounds of the invention were analyzed using the HIF-PH assay described above. Table 1 presents enzyme inhibition data for exemplary compounds against HIF-PH2, a representative HIF prolyl hydroxylase. By inhibiting HIF prolyl hydroxylase, compounds of the invention stabilize HIFα, which then combines with HIFβ to form an active transcription factor that increases expression of various genes involved in numerous beneficial cellular processes.
`O=C(O)CNC(=O)c1c(O)c2cc(Cl)cc(C#Cc3ccccc3)c2sc1=O` [Example 56, [(6-Chloro-4-hydroxy-2-oxo-8-phenylethynyl-2H-thiochromene-3-carbonyl)-amino]-acetic acid]: the inhibition at 7.4 µM worked out at 99.7%. Consider `C[C@H](NC(=O)c1c(O)c2ccccc2sc1=O)C(=O)O` [Example 57, 2-(S)-[(4-Hydroxy-2-oxo-2H-thiochromene-3-carbonyl)-amino]-propionic acid], for which the inhibition at 7.4 µM was found to be 98.4%. The same measure, in the same setting: then `O=C(O)CNC(=O)c1c(O)c2cc(Cl)ccc2sc1=O` [Example 58, [(6-Chloro-4-hydroxy-2-oxo-2H-thiochromene-3-carbonyl)-amino]-acetic acid], with 96.8%.

Still in this assay, the particulars now being: compound concentration 50 μM.
As to `O=C(O)CNC(=O)c1c(O)c2cc(-c3ccc(OC(F)(F)F)cc3)ccc2sc1=O` [Example 40, {[4-Hydroxy-2-oxo-6-(4-trifluoromethoxy-phenyl)-2H-thiochromene-3-carbonyl]-amino}-acetic acid], the inhibition at 50 µM came to 94.8%.

`O=C(O)CNC(=O)c1c(O)c2cc(NC(=O)c3ccccc3)ccc2sc1=O` [Example 41, [(6-Benzoylamino-4-hydroxy-2-oxo-2H-thiochromene-3-carbonyl)-amino]-acetic acid] displayed an inhibition at 50 µM of 100%. `O=C(O)CNC(=O)c1c(O)c2cc(Cl)cc(Cc3ccccc3)c2sc1=O` [Example 42, [(8-Benzyl-6-chloro-4-hydroxy-2-oxo-2H-thiochromene-3-carbonyl)-amino]-acetic acid] came in with an inhibition at 50 µM of 100%.

On to `O=C(O)CNC(=O)c1c(O)c2cc(Cl)cc(-c3cc(C(F)(F)F)cc(C(F)(F)F)c3)c2sc1=O` [Example 43, {[8-(3,5-Bis-trifluoromethyl-phenyl)-6-chloro-4-hydroxy-2-oxo-2H-thiochromene-3-carbonyl]-amino}-acetic acid], for which the inhibition at 50 µM came out at 100%. On the same count and under the same terms, then `O=C(O)CNC(=O)c1c(O)c2cc(Cl)cc(-c3ccccc3)c2sc1=O` [Example 44, [(6-Chloro-4-hydroxy-2-oxo-8-phenyl-2H-thiochromene-3-carbonyl)-amino]-acetic acid], with 100%; and `Cn1nc(C(F)(F)F)cc1-c1cc(Cl)cc2c(O)c(C(=O)NCC(=O)O)c(=O)sc12` [Example 45, {[6-Chloro-4-hydroxy-8-(2-methyl-5-trifluoromethyl-2H-pyrazol-3-yl)-2-oxo-2H-thiochromene-3-carbonyl]-amino}-acetic acid], with 100%. Still for that read-out and setting: then `O=C(O)CNC(=O)c1c(O)c2cc(Cl)cc(-c3cccnc3)c2sc1=O` [Example 46, [(6-Chloro-4-hydroxy-2-oxo-8-pyridin-3-yl-2H-thiochromene-3-carbonyl)-amino]-acetic acid], with 100%.

In the case of `O=C(O)CNC(=O)c1c(O)c2cccc(Cc3ccccc3)c2sc1=O` [Example 47, [(8-Benzyl-4-hydroxy-2-oxo-2H-thiochromene-3-carbonyl)-amino]-acetic acid], the inhibition at 50 µM came out at 100%. The same measure, in the same setting: the figure for `O=C(O)CNC(=O)c1c(O)c2cccc(-c3cc(C(F)(F)F)cc(C(F)(F)F)c3)c2sc1=O` [Example 48, {[8-(3,5-Bis-trifluoromethyl-phenyl)-4-hydroxy-2-oxo-2H-thiochromene-3-carbonyl]-amino}-acetic acid] is 100%. As to `Cn1nc(C(F)(F)F)cc1-c1cccc2c(O)c(C(=O)NCC(=O)O)c(=O)sc12` [Example 49, {[4-Hydroxy-8-(2-methyl-5-trifluoromethyl-2H-pyrazol-3-yl)-2-oxo-2H-thiochromene-3-carbonyl]-amino}-acetic acid], at 50 µM the inhibition was 100%.

In turn, `O=C(O)CNC(=O)c1c(O)c2cccc(-c3cccnc3)c2sc1=O` [Example 50, [(4-Hydroxy-2-oxo-8-pyridin-3-yl-2H-thiochromene-3-carbonyl)-amino]-acetic acid] displayed an inhibition at 50 µM of 98.8%. In turn, `O=C(O)CNC(=O)c1c(O)c2cccc(-c3ccccc3)c2sc1=O` [Example 51, [(4-Hydroxy-2-oxo-8-phenyl-2H-thiochromene-3-carbonyl)-amino]-acetic acid] gave an inhibition at 50 µM of 98.8%. On the same count and under the same terms, then `O=C(O)CNC(=O)c1c(O)c2c(F)cccc2sc1=O` [Example 52, [(5-Fluoro-4-hydroxy-2-oxo-2H-thiochromene-3-carbonyl)-amino]-acetic acid], with 98.5%; and `O=C(O)CNC(=O)c1c(O)c2ccc(C3CC3)cc2sc1=O` [Example 53, [(7-Cyclopropyl-4-hydroxy-2-oxo-2H-thiochromene-3-carbonyl)-amino]-acetic acid], with 99%; and `Cn1nc(C(F)(F)F)cc1-c1ccc2c(O)c(C(=O)NCC(=O)O)c(=O)sc2c1` [Example 54, {[4-Hydroxy-7-(2-methyl-5-trifluoromethyl-2H-pyrazol-3-yl)-2-oxo-2H-thiochromene-3-carbonyl]-amino}-acetic acid], with 98.6%.

The compound `C[C@H](NC(=O)c1c(O)c2ccc(-c3cc(C(F)(F)F)nn3C)cc2sc1=O)C(=O)O` [Example 55, 2-(S)-{[4-Hydroxy-7-(2-methyl-5-trifluoromethyl-2H-pyrazol-3-yl)-2-oxo-2H-thiochromene-3-carbonyl]-amino}-propionic acid] showed an inhibition at 50 µM of 94.5%. On the same count and under the same terms, the figure for `C[C@H](NC(=O)c1c(O)c2cc(Cl)ccc2sc1=O)C(=O)O` [Example 59, 2-(S)-[(6-Chloro-4-hydroxy-2-oxo-2H-thiochromene-3-carbonyl)-amino]-propionic acid] is 95.6%. The same measure, in the same setting: then `O=C(O)CNC(=O)c1c(O)c2ccc(Cl)cc2sc1=O` [Example 60, [(7-Chloro-4-hydroxy-2-oxo-2H-thiochromene-3-carbonyl)-amino]-acetic acid], with 96.5%; and `C[C@H](NC(=O)c1c(O)c2ccc(Cl)cc2sc1=O)C(=O)O` [Example 61, 2-(S)-[(7-Chloro-4-hydroxy-2-oxo-2H-thiochromene-3-carbonyl)-amino]-propionic acid], with 100%; and `O=C(O)CNC(=O)c1c(O)c2cc(OCc3ccccc3)ccc2sc1=O` [Example 62, [(6-Benzyloxy-4-hydroxy-2-oxo-2H-thiochromene-3-carbonyl)-amino]-acetic acid], with 100%. Still for that read-out and setting: the figure for `O=C(O)CNC(=O)c1c(O)c2cc(OCC3CCCCC3)ccc2sc1=O` [Example 63, [(6-Cyclohexylmethoxy-4-hydroxy-2-oxo-2H-thiochromene-3-carbonyl)-amino]-acetic acid] is 98.9%.

The same assay, now with this note: compound concentration 67 μM.
In the case of `O=C(O)CNC(=O)c1c(O)c2cc(-c3ccc(F)cc3)ccc2sc1=O` [Example 38, {[6-(4-Fluoro-phenyl)-4-hydroxy-2-oxo-2H-thiochromene-3-carbonyl]-amino}-acetic acid], the inhibition at 67 µM turned out to be 96.6%. Still for that read-out and setting: the figure for `COc1ccccc1-c1ccc2sc(=O)c(C(=O)NCC(=O)O)c(O)c2c1` [Example 39, {[4-Hydroxy-6-(2-methoxy-phenyl)-2-oxo-2H-thiochromene-3-carbonyl]-amino}-acetic acid] is 94.7%.

Staying with this assay, now noted: compound concentration 200 μM.
`CCCCCCOc1ccc2sc(=O)c(C(=O)NCC(=O)O)c(O)c2c1` [Example 64, [(6-Hexyloxy-4-hydroxy-2-oxo-2H-thiochromene-3-carbonyl)-amino]-acetic acid] had an inhibition at 200 µM of 100%.

As a reminder, the inhibition is the relative decrease from the control value, in per cent. A high value points to a response far below the control.
